Our source for the Ki values is ChEMBL document CHEMBL1131416 (J Med Chem, 1998).

Each structure is given as a SMILES string.

Assay [1] has as its target T1, D(2) dopamine receptor (Bos taurus, UniProt P20288). The assay is described as follows: Tested for binding affinity against Dopamine receptor D2 like from bovine striatum membranes by using [3H]YM-09151-2 radioligand.
The target of assay [2] is D(1A) dopamine receptor (Bos taurus, UniProt Q95136). The experiment in a line: Binding affinity against Dopamine receptor D1 like from bovine retina membranes measured using [3H]SCH-23390 radioligand.
The target in assay [3] is T1, D(2) dopamine receptor. The experiment in a line: Inhibition of [3H]YM-09151-2 binding to bovine retina membrane Dopamine receptor D2, high affinity site.
Assay [4] has as its target T1, D(2) dopamine receptor. The assay is described as follows: Inhibition of [3H]YM-09151-2 binding to bovine retina membrane Dopamine receptor D2, low affinity site.

What is called Ki is the dissociation constant of the complex between target and ligand, obtained from inhibition or displacement. Read a low Ki as higher affinity.

Chain of D(1A) dopamine receptor (Q95136 whole entry): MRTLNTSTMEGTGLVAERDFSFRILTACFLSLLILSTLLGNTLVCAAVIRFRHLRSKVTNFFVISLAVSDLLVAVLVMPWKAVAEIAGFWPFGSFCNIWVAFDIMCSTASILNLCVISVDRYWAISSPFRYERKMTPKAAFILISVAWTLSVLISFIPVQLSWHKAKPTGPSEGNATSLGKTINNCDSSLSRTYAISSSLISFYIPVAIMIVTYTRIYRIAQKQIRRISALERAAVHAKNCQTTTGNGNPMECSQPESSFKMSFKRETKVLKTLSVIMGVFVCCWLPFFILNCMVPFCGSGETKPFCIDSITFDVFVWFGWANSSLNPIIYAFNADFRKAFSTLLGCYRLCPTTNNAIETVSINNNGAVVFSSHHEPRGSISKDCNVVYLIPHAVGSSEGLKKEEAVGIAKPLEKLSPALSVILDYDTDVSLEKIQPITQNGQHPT
T1 sequence (P20288 whole entry): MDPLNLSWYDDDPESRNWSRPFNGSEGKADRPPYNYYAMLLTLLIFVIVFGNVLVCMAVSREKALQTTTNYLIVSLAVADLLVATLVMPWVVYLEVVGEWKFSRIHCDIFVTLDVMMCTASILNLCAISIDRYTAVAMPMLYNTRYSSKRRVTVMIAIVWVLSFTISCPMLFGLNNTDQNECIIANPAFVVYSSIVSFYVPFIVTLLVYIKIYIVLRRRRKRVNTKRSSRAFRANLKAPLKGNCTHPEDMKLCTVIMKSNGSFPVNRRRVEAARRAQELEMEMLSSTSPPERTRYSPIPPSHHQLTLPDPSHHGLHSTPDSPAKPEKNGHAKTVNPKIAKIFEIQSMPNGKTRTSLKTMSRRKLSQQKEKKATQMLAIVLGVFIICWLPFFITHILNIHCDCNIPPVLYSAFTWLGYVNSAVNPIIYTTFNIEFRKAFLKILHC

For `CCCN1CCCC(c2ccc(C)c(C)c2)C1` (stereo unspecified), the Ki in assay [1] turned out to be 4.99 µM; in assay [2] it was 102 µM; in assay [3], 0.0191 µM; in assay [4] it was 8.2 µM.

For the compound `CCCN1CCCC(c2cccc(C)c2C)C1` (stereo unspecified), the Ki is 4.9 µM in assay [1], 60 µM in assay [2], 0.0753 µM in assay [3] and 7.8 µM in assay [4].

In the case of `CCCN1CCCC(c2cc(C)cc(C)c2)C1` (stereo unspecified), the Ki amounted to 1.3 µM in assay [1], 60 µM in assay [2], 0.052 µM in assay [3] and 9.3 µM in assay [4].

Consider `CCCN1CCCC(c2cc(C)ccc2C)C1` (stereo unspecified), for which the Ki in assay [2] was 112 µM; in assay [3], 0.54 µM; in assay [4], 25 µM.

For `Cc1cc(C)cc(C2CCCNC2)c1` (stereo unspecified), the Ki stood at 0.24 µM in assay [3] and 24 µM in assay [4].

As to `Cc1cccc(C2CCCNC2)c1C` (stereo unspecified), the Ki in assay [3] was found to be 0.043 µM; in assay [4] it was 16 µM.

On to `CCCN1CCCC(c2ccc(C)cc2C)C1` (stereo unspecified), for which the Ki worked out at 100 µM in assay [2], 0.72 µM in assay [3] and 17 µM in assay [4].

On to `CCCN1CCCC(c2c(C)cccc2C)C1` (stereo unspecified), for which the Ki was determined as 98 µM in assay [2], 0.156 µM in assay [3] and 23 µM in assay [4].

Regarding `Cc1ccc(C2CCCNC2)cc1C` (stereo unspecified), the Ki in assay [3] came out at 0.14 µM; in assay [4], 19 µM.

As for `NCCc1ccc(O)c(O)c1` [DOPAMINE], affinity in assay [2] was put at a Ki of 4.3 µM. This counts as single-digit micromolar.

`CCCN1CCC[C@@H](c2cccc(O)c2)C1` [PRECLAMOL]: the Ki in assay [1] came to 2.1 µM; in assay [3], 0.53 µM; in assay [4], 12 µM.
